Laboratory results from ChEMBL document CHEMBL5634155, “Design and synthesis of pyrazole derivatives against neutrophilic inflammation” (Eur J Med Chem, 2023).
Active and inactive are the calls of the source. No cut-off for these calls is given here.

Legend:
[1] = test system: Neutrophil; test: Inhibition of fMLF/CB-induced human Neutrophil activation assessed as reduction in superoxide anion generation at 10 uM preincubated with compound for 2 mins prior to CB induction for 3 mins followed by fMLF addition by spectrophotometric analysis relative to control; assay type: functional; conditions: 5 min
[2] = test system: Neutrophil; test: Inhibition of fMLF/CB-induced human Neutrophil activation assessed as reduction in superoxide anion generation at 1 to 1000 nM preincubated with compound for 2 mins prior to CB induction for 3 mins followed by fMLF addition in presence of KT5720 by spectrophotometric analysis; assay type: functional, cell-based; conditions: dose 1-1000 nM, time 5.0 min
[3] = Clearance in C57BL/6 mouse at 5 mg/kg, iv measured upto 360 mins by HPLC analysis; assay type: ADME, organism-based; conditions: in vivo
[4] = test system: Neutrophil; test: Inhibition of fMLF/CB-induced human Neutrophil activation assessed as reduction in superoxide anion generation preincubated with compound for 2 mins prior to CB induction for 3 mins followed by fMLF addition by spectrophotometric analysis; assay type: functional, cell-based
[5] = AUC (0 to infinity) in C57BL/6 mouse at 5 mg/kg, iv measured upto 360 mins by HPLC analysis; assay type: ADME, organism-based; conditions: in vivo
[6] = target: 3',5'-cyclic-AMP phosphodiesterase 4D (Homo sapiens) (UniProt Q08499); test: Inhibition of human recombinant PDE4D2 at 10 uM using […] as substrate preincubated with compound for 15 mins followed by substrate addition and measured after 30 mins by spectrofluorimetric analysis relative to control; conditions: time 45.0 min
[7] = test system: Neutrophil; test: Inhibition of fMLF/CB-induced human Neutrophil activation assessed as reduction in elastase release using MeO-Suc-Ala-Ala-Pro-Val-pnitroanilide as substrate incubated for 5 mins; assay type: functional, cell-based
[8] = Apparent volume of distribution in C57BL/6 mouse at 5 mg/kg, iv measured upto 360 mins by HPLC analysis; assay type: ADME, organism-based; conditions: in vivo, 6 h
[9] = target: 3',5'-cyclic-AMP phosphodiesterase 4B (Homo sapiens) (UniProt Q07343); test: Inhibition of human recombinant PDE4B1 at 10 uM using […] as substrate preincubated with compound for 15 mins followed by substrate addition and measured after 30 mins by spectrofluorimetric analysis relative to control; conditions: time 45.0 min
[10] = Half life in C57BL/6 mouse at 5 mg/kg, iv measured upto 360 mins by HPLC analysis; assay type: ADME, organism-based; conditions: in vivo
[11] = test system: Neutrophil; test: Inhibition of fMLF/CB-induced human Neutrophil activation assessed as reduction in elastase release at 10 uM using MeO-Suc-Ala-Ala-Pro-Val-pnitroanilide as substrate incubated for 5 mins relative to control; assay type: functional
[12] = target: Phosphodiesterase 4 (Homo sapiens) (UniProt P27815+Q08499+Q07343+Q08493); test: Inhibition of PDE4 (unknown origin) at 50 uM incubated for 1 hr by scintillation proximity assay relative to control; assay type: protein assay

Sequence of 3',5'-cyclic-AMP phosphodiesterase 4B (Homo sapiens) (Q07343 whole entry): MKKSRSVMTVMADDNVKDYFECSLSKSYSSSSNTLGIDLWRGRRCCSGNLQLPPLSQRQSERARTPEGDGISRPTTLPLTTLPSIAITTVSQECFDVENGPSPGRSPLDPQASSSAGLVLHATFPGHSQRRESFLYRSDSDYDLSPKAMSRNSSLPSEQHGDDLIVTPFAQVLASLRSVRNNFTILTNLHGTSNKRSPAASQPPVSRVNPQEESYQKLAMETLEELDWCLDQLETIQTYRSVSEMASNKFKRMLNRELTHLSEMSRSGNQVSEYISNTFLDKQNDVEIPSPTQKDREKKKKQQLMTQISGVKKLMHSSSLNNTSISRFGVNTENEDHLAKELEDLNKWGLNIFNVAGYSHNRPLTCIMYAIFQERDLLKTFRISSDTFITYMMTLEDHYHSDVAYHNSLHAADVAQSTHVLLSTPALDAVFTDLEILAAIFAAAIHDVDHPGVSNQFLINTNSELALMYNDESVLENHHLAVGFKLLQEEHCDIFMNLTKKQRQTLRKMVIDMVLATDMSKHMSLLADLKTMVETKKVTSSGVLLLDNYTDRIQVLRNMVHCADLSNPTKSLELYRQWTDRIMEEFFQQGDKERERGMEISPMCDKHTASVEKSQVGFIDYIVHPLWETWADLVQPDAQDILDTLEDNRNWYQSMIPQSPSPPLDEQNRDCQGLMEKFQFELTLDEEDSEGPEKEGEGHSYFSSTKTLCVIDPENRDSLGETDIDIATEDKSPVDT
Sequence of 3',5'-cyclic-AMP phosphodiesterase 4D (Homo sapiens) (Q08499 whole entry): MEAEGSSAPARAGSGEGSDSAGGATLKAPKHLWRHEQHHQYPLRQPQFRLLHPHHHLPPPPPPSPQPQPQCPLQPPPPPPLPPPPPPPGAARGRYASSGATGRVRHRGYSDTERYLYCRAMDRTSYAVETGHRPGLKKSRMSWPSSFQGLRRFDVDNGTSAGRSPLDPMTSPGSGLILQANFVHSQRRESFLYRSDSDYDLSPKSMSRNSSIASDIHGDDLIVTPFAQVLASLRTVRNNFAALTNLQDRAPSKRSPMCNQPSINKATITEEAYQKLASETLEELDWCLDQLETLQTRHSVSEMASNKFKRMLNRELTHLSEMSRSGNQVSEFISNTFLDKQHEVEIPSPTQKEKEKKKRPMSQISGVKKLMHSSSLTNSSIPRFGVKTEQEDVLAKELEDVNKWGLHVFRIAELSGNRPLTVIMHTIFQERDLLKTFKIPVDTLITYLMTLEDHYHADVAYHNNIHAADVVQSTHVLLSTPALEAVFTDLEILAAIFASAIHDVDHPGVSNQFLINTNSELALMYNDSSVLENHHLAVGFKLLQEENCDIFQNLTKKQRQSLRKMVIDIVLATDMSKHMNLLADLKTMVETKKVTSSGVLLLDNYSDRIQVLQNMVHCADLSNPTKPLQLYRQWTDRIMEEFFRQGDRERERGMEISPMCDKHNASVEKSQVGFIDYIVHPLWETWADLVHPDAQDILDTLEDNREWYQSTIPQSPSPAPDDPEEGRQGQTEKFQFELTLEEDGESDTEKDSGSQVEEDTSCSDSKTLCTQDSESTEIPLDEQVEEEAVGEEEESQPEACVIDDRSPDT

Row | SMILES | inhibition at 10 µM [1] | inhibition [2] | clearance [3] | IC50 [4] | AUC(0-inf) [5] | inhibition [6] | IC50 [7] | Vz [8] | inhibition [9] | half-life [10] | inhibition at 10 µM [11] | inhibition [12]
1 | Fc1ccccc1Cn1nc(-c2ccco2)cc1-c1ccccc1 | 66.5% | Active | 1.97 mL/min | 0.00906 µM | 962 ng·h/mL | 85% | > 10 µM | 225 mL | 83% | 1.32 h | 37% | –
2 | OCc1ccc(-c2nn(Cc3ccccc3)c3ccccc23)o1 | 12.9% | – | – | > 10 µM | – | – | > 10 µM | – | – | – | -2.64% | 60%
